Assay results from PMC9596378, “Discovery and molecular basis of subtype-selective cyclophilin inhibitors” (Nature Chemical Biology, 2022).
Where two headings read alike, the source gives them in different places.

Assays:
CypD = CypD (Homo sapiens, UniProt P30405); test: Chymotrypsin coupled prolyl-isomerase assay; conditions: for IC50: read-out: Wild-Type Cyclophilin Prolyl Isomerase Inhibition IC50 Values, CypD, wild-type CypD
CypB = target: T1, CypB (Homo sapiens, UniProt P23284); test: biochemical
T1 construct: PPIB (UniProtKB Entry P23284: residues 34–216); His6 with TEV site (2BT vector leader) (N); made in house; host or cells: E. coli BL21(DE3)
T1 sequence (P23284 34-216): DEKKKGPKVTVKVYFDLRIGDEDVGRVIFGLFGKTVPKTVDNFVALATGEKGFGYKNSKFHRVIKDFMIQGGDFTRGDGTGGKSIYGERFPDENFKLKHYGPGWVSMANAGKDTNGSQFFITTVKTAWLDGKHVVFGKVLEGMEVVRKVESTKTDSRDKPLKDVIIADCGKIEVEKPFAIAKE
Description: (§1) Adapting a previously described protocol, with an Agilent Bravo Velocity 11 with a 384ST head, 90 µL assay buffer (25 mM HEPES pH 7.3, 100 mM NaCl, 0.01% Triton X-100) containing 5.28 nM cyclophilin was added into a flat, clear-bottom, black 384-well plate pre-chilled in a Corning CoolBox at 2–3 °C. Five microliters of compound pre-dissolved in 5% DMSO/assay buffer was then added to appropriate wells and incubated at 2–3 °C for 5 min. Five microliters of 0.5 mM α-chymotrypsin from bovine pancreas (Type II, lyophilized powder, Millipore-Sigma) in 20% 1 mM HCl/Assay Buffer was then added to each well and incubated at 2–3 °C for 5 min. The plate was then quickly transferred to a FLIPR Tetra High-Throughput Cellular Screening System (Molecular Devices). Using the internal liquid handling system of the FLIPR, 1 µL 0.5 mM Suc-AAPF-AMC (Chymotrypsin Substrate II, Millipore-Sigma) dissolved in 0.55 M LiCl/2,2,2-trifluoroethanol was added to each well, which was then mixed for 5 s, followed by immediate fluorescence measurements every 1 s for 330 s using a 360–380 nm excitation LED module and a 400–460 nm emission filter. Final concentrations of the plate include 5 nM cyclophilin, 0.25% DMSO, 25 µM α-chymotrypsin, 5 µM Suc-AAPF-AMC. Raw fluorescence data was analyzed by non-linear regression analysis with Prism v.9 by fitting one-phase association curves to each well. […] Rate constants calculated for each well (s^−1) were then normalized to substrate only (no prolyl-isomerase) and enzyme + substrate only controls. IC50 values were calculated as the value at which 50% inhibition was achieved on the non-linear regression fitted curve of each compound.

Cyp40 = Cyp40 (Homo sapiens, UniProt Q08752); test: Chymotrypsin coupled prolyl-isomerase assay; conditions: read-out: Wild-Type Cyclophilin Prolyl Isomerase Inhibition IC50 Values, Cyp40; wild-type Cyp40
Cyp40, sequence (Q08752 1-183): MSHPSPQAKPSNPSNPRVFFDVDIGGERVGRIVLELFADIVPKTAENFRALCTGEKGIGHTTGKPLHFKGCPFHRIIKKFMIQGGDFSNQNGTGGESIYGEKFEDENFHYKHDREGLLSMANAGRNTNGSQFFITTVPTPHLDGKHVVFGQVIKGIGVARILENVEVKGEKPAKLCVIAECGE
Description: as §1

NKTR = target: T2, NKTR (Homo sapiens, UniProt P30414); test: Chymotrypsin coupled prolyl-isomerase assay; type: biochemical
T2 construct: NKTR (UniProtKB Entry P30414: residues 7–179); host or cells: E. coli BL21(DE3)
T2 sequence (P30414 7-179): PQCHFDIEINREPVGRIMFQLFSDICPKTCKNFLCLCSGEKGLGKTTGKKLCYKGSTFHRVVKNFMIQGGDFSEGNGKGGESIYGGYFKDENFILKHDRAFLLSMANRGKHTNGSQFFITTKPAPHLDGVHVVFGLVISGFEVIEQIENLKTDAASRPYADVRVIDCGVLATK
Description: (§2) Adapting a previously described protocol[51], with an Agilent Bravo Velocity 11 with a 384ST head, 90 µL assay buffer (25 mM HEPES pH 7.3, 100 mM NaCl, 0.01% Triton X-100) containing 5.28 nM cyclophilin was added into a flat, clear-bottom, black 384-well plate pre-chilled in a Corning CoolBox at 2–3 °C. Five microliters of compound pre-dissolved in 5% DMSO/assay buffer was then added to appropriate wells and incubated at 2–3 °C for 5 min. Five microliters of 0.5 mM α-chymotrypsin from bovine pancreas (Type II, lyophilized powder, Millipore-Sigma) in 20% 1 mM HCl/Assay Buffer was then added to each well and incubated at 2–3 °C for 5 min. […] Using the internal liquid handling system of the FLIPR, 1 µL 0.5 mM Suc-AAPF-AMC (Chymotrypsin Substrate II, Millipore-Sigma) dissolved in 0.55 M LiCl/2,2,2-trifluoroethanol was added to each well, which was then mixed for 5 s, followed by immediate fluorescence measurements every 1 s for 330 s using a 360–380 nm excitation LED module and a 400–460 nm emission filter. Final concentrations of the plate include 5 nM cyclophilin, 0.25% DMSO, 25 µM α-chymotrypsin, 5 µM Suc-AAPF-AMC. Raw fluorescence data was analyzed by non-linear regression analysis with Prism v.9 by fitting one-phase association curves to each well. Analyses were halted after the calculated maximum fluorescent value owing to observed fluorescent bleaching during the sustained fluorescent plateau. Rate constants calculated for each well (s^−1) were then normalized to substrate only (no prolyl-isomerase) and enzyme + substrate only controls. IC50 values were calculated as the value at which 50% inhibition was achieved on the non-linear regression fitted curve of each compound.

PPIL1 = target: T3, PPIL1 (Homo sapiens, UniProt Q9Y3C6); test: Chymotrypsin coupled prolyl-isomerase assay; type: biochemical
T3 construct: PPIL1 (UniProtKB Entry Q9Y3C6: residues 1–166); made in house; host or cells: E. coli BL21(DE3)
T3 sequence (Q9Y3C6 1-166): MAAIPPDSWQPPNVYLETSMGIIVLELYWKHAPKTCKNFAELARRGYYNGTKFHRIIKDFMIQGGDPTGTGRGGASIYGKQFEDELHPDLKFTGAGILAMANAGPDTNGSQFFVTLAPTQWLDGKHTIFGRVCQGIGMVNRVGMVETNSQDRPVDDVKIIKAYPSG
Description: as §2

PPWD1 = target: T4, PPWD1 (Homo sapiens, UniProt Q96BP3); test: Chymotrypsin coupled prolyl-isomerase assay; type: biochemical; conditions: wild-type PPWD1; read-out: Wild-Type Cyclophilin Prolyl Isomerase Inhibition IC50 Values, PPWD1
T4 construct: PPWD1 (UniProtKB Entry Q96BP3: residues 473–646); host or cells: E. coli BL21(DE3)
T4 sequence (Q96BP3 473-646): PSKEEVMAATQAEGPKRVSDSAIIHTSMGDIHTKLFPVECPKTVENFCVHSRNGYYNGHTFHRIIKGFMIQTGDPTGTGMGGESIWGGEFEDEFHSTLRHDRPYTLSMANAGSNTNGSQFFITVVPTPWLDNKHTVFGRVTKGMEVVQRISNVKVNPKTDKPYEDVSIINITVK

[1] = wild-type CypB, read-out: Wild-Type Cyclophilin Prolyl Isomerase Inhibition IC50 Values, CypB
[2] = wild-type NKTR, read-out: Wild-Type Cyclophilin Prolyl Isomerase Inhibition IC50 Values, NKTR
[3] = wild-type PPIL1, read-out: Wild-Type Cyclophilin Prolyl Isomerase Inhibition IC50 Values, PPIL1

CypD, sequence (P30405 45-207): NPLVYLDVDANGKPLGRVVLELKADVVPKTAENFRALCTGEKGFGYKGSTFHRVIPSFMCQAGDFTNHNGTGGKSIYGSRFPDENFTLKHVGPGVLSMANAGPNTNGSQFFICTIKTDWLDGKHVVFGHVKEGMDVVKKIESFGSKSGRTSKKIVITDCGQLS

In the case of C[N+]1=C(C=CC=CC=C2N(CCCCCC(=O)NCCNC(=O)C3CCNC(=O)C=CC(=O)N4CCCC(Cc5ccccc5)(C4)C(=O)NC(Cc4ccc(-c5ccc(CC(C(=O)O)C(=O)O)cc5)cc4)C(=O)NCc4ccccc4CC(=O)N3)c3ccccc3C2(C)C)C(C)(C)c2ccccc21 (stereo not shown) [*B52-Cy5], the “CypD prolyl-isomerase inhibition (in words)” value (CypD) is reported as “do not inhibit CypD in vitro”, the IC50 (CypD) is reported as greater than 10 µM and the IC50 (CypB; [1]) is reported as greater than 10 µM. The IC50 (Cyp40) was greater than 10 µM, the IC50 (NKTR; [2]) was greater than 10 µM and the IC50 (PPIL1; [3]) was greater than 10 µM. The IC50 (PPWD1) was greater than 10 µM.

With C[N+]1=C(C=CC=CC=C2N(CCCCCC(=O)NCCNC(=O)C3CCNC(=O)C=CC(=O)N4CCCC(Cc5ccccc5)(C4)C(=O)NC(Cc4ccc(-c5ccc(C(CC(=O)O)CC(=O)O)cc5)cc4)C(=O)NCc4ccccc4CC(=O)N3)c3ccccc3C2(C)C)C(C)(C)c2ccccc21 (stereo not shown) [*B53-Cy5] the “CypD prolyl-isomerase inhibition (in words)” value (CypD) was “do not inhibit CypD in vitro”, the IC50 (CypD) was greater than 10 µM and the IC50 (CypB; [1]) was greater than 10 µM. The IC50 (Cyp40) was greater than 10 µM, the IC50 (NKTR; [2]) was greater than 10 µM and the IC50 (PPIL1; [3]) was greater than 10 µM. It also gave an IC50 (PPWD1) greater than 10 µM.

With NC(=O)[C@@H]1CCNC(=O)/C=C/C(=O)N2CCC[C@](Cc3ccccc3)(C2)C(=O)N[C@@H](Cc2ccc(-c3cccc(B(O)O)c3)cc2)C(=O)NCc2ccccc2CC(=O)N1 [Compound C6A] the IC50 (CypD) was 1.1 µM, the IC50 (CypB; prolyl-isomerase inhibition, 5 nM cyclophilin, read-out: IC50 CypB) was roughly 8 µM and the IC50 (CypB; [1]) was 8 µM. It also gave an IC50 (NKTR; prolyl-isomerase inhibition, 5 nM cyclophilin, read-out: IC50 NKTR) greater than 10 µM, an IC50 (NKTR; [2]) of 5 µM and an IC50 (PPIL1; prolyl-isomerase inhibition, 5 nM cyclophilin, read-out: IC50 PPIL1) of roughly 5 µM. The IC50 (PPIL1; [3]) was greater than 10 µM and the IC50 (PPWD1) was greater than 10 µM.
